Results from ChEMBL document CHEMBL1201862, “PubChem BioAssay data set” (2004).
Calls of active or inactive are those of the source.

Key:
[1] = biological target: T1, Dual specificity protein phosphatase 3 (Homo sapiens, UniProt P51452); test: VHR1 phosphatase inhibitors, biochemical (AID 1878)
[2] = biological target: T2, Voltage-gated N-type calcium channel alpha-1B subunit/Amyloid beta A4 precursor protein-binding family A member 1 (Homo sapiens, UniProt Q00975+Q02410); assay type: protein assay
T2 sequence (Q00975 whole entry): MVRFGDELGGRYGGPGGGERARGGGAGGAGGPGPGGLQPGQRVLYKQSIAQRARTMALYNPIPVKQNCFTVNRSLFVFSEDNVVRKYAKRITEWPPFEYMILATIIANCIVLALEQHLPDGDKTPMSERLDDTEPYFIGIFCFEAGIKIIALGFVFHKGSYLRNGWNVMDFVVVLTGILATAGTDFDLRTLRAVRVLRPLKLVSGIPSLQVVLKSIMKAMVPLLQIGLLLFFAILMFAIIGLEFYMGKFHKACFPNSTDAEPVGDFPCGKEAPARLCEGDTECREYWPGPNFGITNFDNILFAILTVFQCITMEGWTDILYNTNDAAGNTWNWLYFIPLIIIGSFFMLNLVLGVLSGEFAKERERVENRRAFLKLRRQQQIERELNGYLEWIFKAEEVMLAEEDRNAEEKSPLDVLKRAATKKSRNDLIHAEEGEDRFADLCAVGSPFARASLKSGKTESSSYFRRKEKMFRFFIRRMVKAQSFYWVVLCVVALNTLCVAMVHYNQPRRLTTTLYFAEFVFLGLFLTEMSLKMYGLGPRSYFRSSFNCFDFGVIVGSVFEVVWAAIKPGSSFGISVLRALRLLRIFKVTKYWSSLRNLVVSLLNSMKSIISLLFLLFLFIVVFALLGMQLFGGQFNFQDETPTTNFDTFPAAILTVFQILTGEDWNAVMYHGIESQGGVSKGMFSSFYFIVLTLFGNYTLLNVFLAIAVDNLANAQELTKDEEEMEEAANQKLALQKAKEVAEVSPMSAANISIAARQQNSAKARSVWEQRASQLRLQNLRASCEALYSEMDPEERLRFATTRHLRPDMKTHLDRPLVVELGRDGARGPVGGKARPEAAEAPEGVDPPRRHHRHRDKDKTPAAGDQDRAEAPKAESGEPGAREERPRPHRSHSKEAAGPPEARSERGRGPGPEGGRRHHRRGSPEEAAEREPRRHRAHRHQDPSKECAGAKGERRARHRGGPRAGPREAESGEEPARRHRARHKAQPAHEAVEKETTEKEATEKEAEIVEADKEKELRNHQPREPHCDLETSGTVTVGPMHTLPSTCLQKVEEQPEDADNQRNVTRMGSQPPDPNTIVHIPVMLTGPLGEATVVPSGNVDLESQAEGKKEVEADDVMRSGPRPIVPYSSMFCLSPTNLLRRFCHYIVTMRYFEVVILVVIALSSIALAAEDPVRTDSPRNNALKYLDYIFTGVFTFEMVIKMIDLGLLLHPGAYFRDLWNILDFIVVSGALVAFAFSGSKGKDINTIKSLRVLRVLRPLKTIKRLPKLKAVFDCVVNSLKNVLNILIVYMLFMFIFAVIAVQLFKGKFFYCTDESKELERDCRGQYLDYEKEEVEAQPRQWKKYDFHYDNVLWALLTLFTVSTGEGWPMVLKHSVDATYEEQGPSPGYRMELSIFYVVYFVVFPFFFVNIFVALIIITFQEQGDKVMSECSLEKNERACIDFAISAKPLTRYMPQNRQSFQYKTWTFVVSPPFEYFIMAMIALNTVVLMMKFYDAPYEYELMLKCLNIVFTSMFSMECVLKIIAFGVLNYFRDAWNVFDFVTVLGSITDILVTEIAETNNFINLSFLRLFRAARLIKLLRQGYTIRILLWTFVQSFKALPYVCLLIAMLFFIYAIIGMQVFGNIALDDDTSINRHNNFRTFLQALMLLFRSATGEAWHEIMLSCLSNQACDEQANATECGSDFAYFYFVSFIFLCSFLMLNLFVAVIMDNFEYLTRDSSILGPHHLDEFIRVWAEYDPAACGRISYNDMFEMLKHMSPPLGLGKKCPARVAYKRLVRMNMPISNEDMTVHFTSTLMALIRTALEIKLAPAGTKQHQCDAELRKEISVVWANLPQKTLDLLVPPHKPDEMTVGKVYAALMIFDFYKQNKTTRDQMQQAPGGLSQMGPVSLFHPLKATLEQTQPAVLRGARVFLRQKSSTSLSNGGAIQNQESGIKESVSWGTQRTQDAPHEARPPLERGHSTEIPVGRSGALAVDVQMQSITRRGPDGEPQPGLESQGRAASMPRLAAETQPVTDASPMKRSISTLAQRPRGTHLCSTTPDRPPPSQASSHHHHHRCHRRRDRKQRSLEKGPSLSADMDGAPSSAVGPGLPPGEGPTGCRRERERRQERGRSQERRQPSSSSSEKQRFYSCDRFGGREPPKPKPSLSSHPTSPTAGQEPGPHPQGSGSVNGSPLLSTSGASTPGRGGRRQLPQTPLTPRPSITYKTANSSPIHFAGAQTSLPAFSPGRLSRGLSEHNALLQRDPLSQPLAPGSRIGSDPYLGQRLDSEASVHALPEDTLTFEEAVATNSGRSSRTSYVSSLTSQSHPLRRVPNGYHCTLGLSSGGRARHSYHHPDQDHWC
T2 sequence (Q02410 whole entry): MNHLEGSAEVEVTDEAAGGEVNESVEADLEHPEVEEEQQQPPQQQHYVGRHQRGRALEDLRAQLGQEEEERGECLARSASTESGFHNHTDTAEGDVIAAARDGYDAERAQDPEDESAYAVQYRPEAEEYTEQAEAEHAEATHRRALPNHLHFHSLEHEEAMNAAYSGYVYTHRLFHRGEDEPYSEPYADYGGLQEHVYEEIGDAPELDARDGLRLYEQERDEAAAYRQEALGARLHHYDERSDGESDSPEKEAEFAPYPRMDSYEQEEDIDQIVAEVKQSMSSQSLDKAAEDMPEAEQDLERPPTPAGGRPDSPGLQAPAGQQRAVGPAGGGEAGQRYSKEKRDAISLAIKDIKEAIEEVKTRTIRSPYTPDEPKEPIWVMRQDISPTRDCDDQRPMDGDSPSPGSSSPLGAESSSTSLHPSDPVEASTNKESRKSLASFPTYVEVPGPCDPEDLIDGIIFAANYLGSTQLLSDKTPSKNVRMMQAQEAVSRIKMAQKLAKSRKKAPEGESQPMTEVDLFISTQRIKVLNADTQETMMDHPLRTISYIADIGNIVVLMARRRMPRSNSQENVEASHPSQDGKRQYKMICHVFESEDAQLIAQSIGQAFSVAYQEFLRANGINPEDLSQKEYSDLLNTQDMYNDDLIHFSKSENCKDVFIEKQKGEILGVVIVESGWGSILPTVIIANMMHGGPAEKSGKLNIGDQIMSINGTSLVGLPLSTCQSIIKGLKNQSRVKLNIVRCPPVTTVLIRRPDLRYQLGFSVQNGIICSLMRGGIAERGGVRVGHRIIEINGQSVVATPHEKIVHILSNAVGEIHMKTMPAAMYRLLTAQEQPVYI

[3] = biological target: T3, Zinc finger protein mex-5 (Caenorhabditis elegans, UniProt Q9XUB2); test: potency of MEX-5 RNA-binding blockers – biochemical, C. elegans, fluorescence polarization, dose response (AID 1960)
T3 sequence (Q9XUB2 whole entry): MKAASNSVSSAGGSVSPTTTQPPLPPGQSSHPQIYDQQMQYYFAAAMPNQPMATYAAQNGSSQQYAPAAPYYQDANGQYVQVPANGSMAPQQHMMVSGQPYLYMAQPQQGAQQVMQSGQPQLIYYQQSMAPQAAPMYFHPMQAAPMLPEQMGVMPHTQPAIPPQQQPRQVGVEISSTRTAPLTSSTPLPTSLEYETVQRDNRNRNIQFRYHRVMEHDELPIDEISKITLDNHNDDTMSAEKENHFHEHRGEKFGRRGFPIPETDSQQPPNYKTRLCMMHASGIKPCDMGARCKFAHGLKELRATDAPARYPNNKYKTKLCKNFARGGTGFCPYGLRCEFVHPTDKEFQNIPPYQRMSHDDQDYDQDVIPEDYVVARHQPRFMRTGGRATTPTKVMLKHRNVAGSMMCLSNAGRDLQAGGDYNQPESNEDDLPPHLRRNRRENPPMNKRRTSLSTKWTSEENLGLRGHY

[4] = biological target: T4, Dual specificity protein phosphatase 6 (Rattus norvegicus, UniProt Q64346); test: inhibition of rat DUSP6 enzyme activity – biochemical, in vitro, primary screen (AID 425)
T4 sequence (Q64346 whole entry): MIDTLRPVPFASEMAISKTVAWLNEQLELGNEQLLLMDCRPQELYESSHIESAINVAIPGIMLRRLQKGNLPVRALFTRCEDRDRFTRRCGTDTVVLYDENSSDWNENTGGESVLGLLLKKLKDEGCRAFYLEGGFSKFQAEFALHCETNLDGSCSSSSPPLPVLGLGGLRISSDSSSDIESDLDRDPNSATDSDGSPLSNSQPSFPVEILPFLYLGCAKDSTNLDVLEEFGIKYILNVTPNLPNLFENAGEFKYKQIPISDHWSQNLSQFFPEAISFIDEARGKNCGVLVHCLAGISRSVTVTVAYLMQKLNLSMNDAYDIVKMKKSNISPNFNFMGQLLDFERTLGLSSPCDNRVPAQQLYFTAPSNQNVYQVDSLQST

[5] = biological target: Serine/threonine-protein phosphatase PP1-alpha catalytic subunit (Homo sapiens, UniProt P62136); test: inhibition of protein phosphatase 1 activity – biochemical, fluorescence, dose response (AID 2403);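 further: phosphatase turnover of OMFP into fluorescent 3-O-methylfluorescein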
[6] = biological target: T2, Voltage-gated N-type calcium channel alpha-1B subunit/Amyloid beta A4 precursor protein-binding family A member 1; assay type: protein assay; remark: listed apart in the source
[7] = biological target: T1, Dual specificity protein phosphatase 3; test: VHR1 phosphatase inhibitors, primary screen, biochemical, absorbance, uHTS (AID 1654)
[8] = biological target: T5, Serine/threonine-protein phosphatase (Homo sapiens, UniProt Q9BPW0); test: Counterscreen for inhibitors of PP1: fluorescence-based biochemical high throughput dose response assay to identify inhibitors of Protein Phosphatase 5 (PP5). [Related pubchem assays: 2034 (Summary (PP5 inhibitors)), 1987 (PP5 inhibitors in singlate), 2235 (PP1 inhibitors in singlate)]
T5 sequence (Q9BPW0 whole entry): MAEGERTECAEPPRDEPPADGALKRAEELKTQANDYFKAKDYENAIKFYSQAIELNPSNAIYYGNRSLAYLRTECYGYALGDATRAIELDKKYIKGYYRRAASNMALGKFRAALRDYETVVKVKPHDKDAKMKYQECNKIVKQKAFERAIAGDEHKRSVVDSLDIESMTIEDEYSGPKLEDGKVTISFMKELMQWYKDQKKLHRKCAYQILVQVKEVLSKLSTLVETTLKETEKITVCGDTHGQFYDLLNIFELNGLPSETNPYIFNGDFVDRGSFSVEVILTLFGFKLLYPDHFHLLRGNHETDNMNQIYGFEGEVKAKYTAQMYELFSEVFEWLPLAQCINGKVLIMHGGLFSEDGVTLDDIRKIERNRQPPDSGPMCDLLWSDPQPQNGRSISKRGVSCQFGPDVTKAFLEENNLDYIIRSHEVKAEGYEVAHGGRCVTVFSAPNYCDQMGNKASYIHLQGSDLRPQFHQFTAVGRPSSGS

[9] = biological target: T6, Kappa-type opioid receptor (Homo sapiens, UniProt P41145); test: SAR analysis of small molecule agonists of the kappa opioid receptor via a luminescent beta-arrestin assay. [Related pubchem assays (depositor defined):AID1777, AID1786, AID1966, AID2133, AID2136, AID2348, AID2352, AID2357, AID2359, AID2370, AID2420, AID2478, AID2491, AID2492, AID2493, AID2497, AID2498, AID2500, AID449737, AID488822, AID488842]; assay type: functional
T6 sequence (P41145 whole entry): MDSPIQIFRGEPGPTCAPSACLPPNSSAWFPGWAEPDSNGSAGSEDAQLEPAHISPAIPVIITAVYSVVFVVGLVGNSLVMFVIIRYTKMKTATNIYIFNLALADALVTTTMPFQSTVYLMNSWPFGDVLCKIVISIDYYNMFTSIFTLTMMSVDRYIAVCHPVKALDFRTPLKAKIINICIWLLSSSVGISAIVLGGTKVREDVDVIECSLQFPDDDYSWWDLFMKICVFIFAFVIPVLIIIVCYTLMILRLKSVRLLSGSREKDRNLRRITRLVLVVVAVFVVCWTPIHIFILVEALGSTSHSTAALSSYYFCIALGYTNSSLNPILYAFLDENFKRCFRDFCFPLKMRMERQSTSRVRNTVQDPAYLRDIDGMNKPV

Mu-type opioid receptor [10] = biological target: T7, Mu-type opioid receptor (Homo sapiens, UniProt P35372); test: mu opioid receptor activators, image-based, SAR follow-up (AID 2352); assay type: functional
T7 sequence (P35372 whole entry): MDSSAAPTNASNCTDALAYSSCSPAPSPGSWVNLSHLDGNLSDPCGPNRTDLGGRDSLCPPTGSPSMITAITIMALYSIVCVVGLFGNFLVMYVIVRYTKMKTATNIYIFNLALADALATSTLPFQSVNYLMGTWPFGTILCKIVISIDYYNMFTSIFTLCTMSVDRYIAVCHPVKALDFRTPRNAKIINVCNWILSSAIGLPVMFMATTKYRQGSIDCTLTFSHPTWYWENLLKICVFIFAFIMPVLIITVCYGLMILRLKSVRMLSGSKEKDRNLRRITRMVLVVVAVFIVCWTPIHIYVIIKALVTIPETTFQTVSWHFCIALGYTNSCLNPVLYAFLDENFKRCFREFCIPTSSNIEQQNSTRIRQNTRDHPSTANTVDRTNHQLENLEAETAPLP

[11] = biological target: T8, Delta-type opioid receptor (Homo sapiens, UniProt P41143); test: DOR agonists, SAR follow-up, image-based (AID 2370); assay type: functional
T8 sequence (P41143 whole entry): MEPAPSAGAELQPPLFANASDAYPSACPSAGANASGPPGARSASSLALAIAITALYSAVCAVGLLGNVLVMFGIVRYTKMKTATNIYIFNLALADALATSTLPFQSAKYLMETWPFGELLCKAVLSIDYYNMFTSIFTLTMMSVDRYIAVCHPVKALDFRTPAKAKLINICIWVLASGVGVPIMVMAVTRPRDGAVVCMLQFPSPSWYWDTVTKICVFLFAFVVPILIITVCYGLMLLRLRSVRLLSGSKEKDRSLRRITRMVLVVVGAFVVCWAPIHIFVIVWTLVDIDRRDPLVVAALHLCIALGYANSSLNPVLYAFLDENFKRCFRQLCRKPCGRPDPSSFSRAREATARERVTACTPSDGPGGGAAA

[12] = biological target: T6, Kappa-type opioid receptor; test: SAR analysis of small molecule agonists of the kappa opioid receptor via a luminescent beta-arrestin assay - Set 3. [Related pubchem assays (depositor defined):AID1777, AID1785, AID1786, AID1966, AID2133, AID2136, AID2284, AID2500]; assay type: functional
[13] = biological target: T6, Kappa-type opioid receptor; test: kappa opioid receptor activation potency – imaging, image-based, SAR follow-up (AID 2359); assay type: functional
[14] = biological target: T6, Kappa-type opioid receptor; test: kappa opioid receptor blockers, image-based, SAR follow-up (AID 2348); assay type: functional
[15] = biological target: T8, Delta-type opioid receptor; test: SAR Analysis of Agonists of the DOR Receptor using an Image-Based Assay - Set 3. [Related pubchem assays (depositor defined):AID1777, AID1786]; assay type: functional
Mu-type opioid receptor [16] = biological target: T7, Mu-type opioid receptor; test: mu opioid receptor blockers – image-based, SAR follow-up (AID 2420); assay type: functional;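 further: compounds added before stimulation of receptor with agonist DAMGO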
[17] = biological target: T8, Delta-type opioid receptor; test: delta opioid receptor blockers – image-based, SAR follow-up (AID 2357); assay type: functional
Mu-type opioid receptor [18] = biological target: T7, Mu-type opioid receptor; test: SAR Analysis of Agonists of the MOR Receptor using an Image-Based Assay - Set 3. [Related pubchem assays (depositor defined):AID1777, AID1785, AID1786, AID1966, AID2133, AID2136, AID2284, AID2285, AID2352]; assay type: functional
[19] = biological target: T6, Kappa-type opioid receptor; test: kappa opioid receptor activation by imaging – image-based, set 3, SAR follow-up (AID 488833); assay type: functional
CAAX prenyl protease 1 = CAAX prenyl protease 1 (Saccharomyces cerevisiae S288c, UniProt P47154); test: yeast CAAX protease Ste24 inhibition – biochemical, S. cerevisiae, plate reader, cherry-pick, dose response (AID 488815)
CAAX prenyl protease 1, sequence (P47154 whole entry): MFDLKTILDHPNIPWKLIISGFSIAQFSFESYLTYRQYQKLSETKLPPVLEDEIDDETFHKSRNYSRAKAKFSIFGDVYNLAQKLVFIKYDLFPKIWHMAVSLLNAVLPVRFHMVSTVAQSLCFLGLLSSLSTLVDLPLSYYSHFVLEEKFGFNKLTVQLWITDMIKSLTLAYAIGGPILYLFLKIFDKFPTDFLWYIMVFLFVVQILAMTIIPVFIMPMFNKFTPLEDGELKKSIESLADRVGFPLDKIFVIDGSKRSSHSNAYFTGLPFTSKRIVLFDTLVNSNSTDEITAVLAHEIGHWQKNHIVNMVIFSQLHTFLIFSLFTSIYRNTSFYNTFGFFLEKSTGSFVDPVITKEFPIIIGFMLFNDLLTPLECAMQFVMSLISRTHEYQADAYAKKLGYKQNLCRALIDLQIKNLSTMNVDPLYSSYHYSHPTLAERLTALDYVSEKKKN

Trypsin = Trypsin (Sus scrofa, UniProt P00761); test: trypsin protease activity blockade – biochemical, quenched peptide fluorescence, cherry-pick, selectivity assay for Rce1 protease inhibitor project, dose response (AID 488789)
[20] = restored growth of temperature-sensitive Burl-1 yeast – whole organism, S. cerevisiae, Burl-1 ts mutant, luminescence, counter-screen for SUMOylation pathway inhibitor project, dose response (AID 463199); assay type: functional
Phosphomannomutase 2 = Phosphomannomutase 2 (Homo sapiens, UniProt O15305); test: Counter screen SAR assay for PMM2 inhibitors via a fluorescence intensity assay. [Related pubchem assays (depositor defined):AID1545, AID1574]
[21] = biological target: T9, Mannose-6-phosphate isomerase (Homo sapiens, UniProt P34949); test: phosphomannose isomerase inhibition – biochemical, fluorescence intensity, confirmation (AID 1535)
T9 sequence (P34949 whole entry): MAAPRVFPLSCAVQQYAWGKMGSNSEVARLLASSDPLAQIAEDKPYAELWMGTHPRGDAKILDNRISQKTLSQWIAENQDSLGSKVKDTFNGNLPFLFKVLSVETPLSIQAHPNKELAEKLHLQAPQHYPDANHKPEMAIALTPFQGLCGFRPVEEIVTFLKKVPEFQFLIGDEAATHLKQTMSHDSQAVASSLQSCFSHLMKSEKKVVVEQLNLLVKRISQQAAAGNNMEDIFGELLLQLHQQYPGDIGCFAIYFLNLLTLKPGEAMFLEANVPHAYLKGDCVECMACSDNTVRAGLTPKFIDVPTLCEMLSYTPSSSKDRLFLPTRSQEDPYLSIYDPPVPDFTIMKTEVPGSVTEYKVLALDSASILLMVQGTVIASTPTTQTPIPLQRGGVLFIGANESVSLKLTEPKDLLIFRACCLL

Apelin receptor = Apelin receptor (Homo sapiens, UniProt P35414); test: apelin receptor antagonists, arrestin read-out – cell-based, luminescent, enzyme-fragment complementation, selectivity assay for CCR6 antagonist project, SAR follow-up (AID 588359); assay type: functional

T1 sequence (P51452 whole entry): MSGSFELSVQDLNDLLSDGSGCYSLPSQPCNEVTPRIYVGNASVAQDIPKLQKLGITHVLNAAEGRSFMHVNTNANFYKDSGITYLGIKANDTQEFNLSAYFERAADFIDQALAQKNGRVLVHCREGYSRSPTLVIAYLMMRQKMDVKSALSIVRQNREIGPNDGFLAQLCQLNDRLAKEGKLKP

O=C1NC(=S)N(c2ccc(F)cc2)C(=O)/C1=C/c1ccco1
IC50 [1]: < 1.23 µM (inactive)
IC50 [2]: 4.45 µM (active)
EC50 [3]: 11.1 µM (active)
IC50 [4]: 1.36 µM (active)
IC50 [5]: 8.21 µM (active)
IC50 [6]: 3.33 µM (active)
IC50 [7]: < 1.23 µM (inactive)
IC50 [8]: > 67 µM (not active)

Clc1ccccc1CSc1nnc(-c2ccccn2)n1Cc1ccco1
EC50 [9]: > 10 µM (inactive)
EC50 (Mu-type opioid receptor [10]): > 32 µM (inactive)
EC50 [11]: > 32 µM (inactive)
EC50 [12]: 9.07 µM (active)
EC50 [13]: 10.4 µM (active)
IC50 [14]: > 32 µM (inactive)
EC50 [15]: > 64 µM (inactive)
IC50 (Mu-type opioid receptor [16]): > 32 µM (inactive)
IC50 [17]: > 32 µM (inactive)
EC50 (Mu-type opioid receptor [18]): > 32 µM (inactive)
EC50 [19]: 11.6 µM (inactive)

COc1cccc(C2CC3=Nc4ccccc4N(C(=O)CCC(=O)O)C(c4ccc(F)cc4)C3=C(O)C2)c1 (stereo not given)
AC50 (CAAX prenyl protease 1): 21.6 µM (active)
AC50 (Trypsin): 12 µM (active)

S=C(NCCc1c[nH]c2ccccc12)NC1CC1
AC50 [20]: 51 µM (active)

O=C1c2ccccc2SC1c1ccccc1 (stereo not given)
IC50 (Phosphomannomutase 2): > 100 µM (inactive)
IC50 [21]: > 100 µM (inactive)

C/C(=N\Nc1ccc2ccccc2n1)c1ccccc1O
IC50 (Apelin receptor): 4.12 µM (active)
